Data taken from patent US7531533B2, “6-Membered heterocyclic compound and use thereof” (Asahi Kasei Pharma Corporation, priority 2005, dated 2009).

Legend:
human EP4 receptor = biological target: T1, human EP4 receptor (Homo sapiens, UniProt P35408); experiment: Agonist activity measurement (cAMP production) using human EP4 receptor expressing HEK293 cells; assay type: cell-based; settings: test compound concentration of 10 μM, HEK293 stably expressing human EP4
T1 construct: expressed in transfected cells
Protocol: Agonist Activity Measurement Using Human EP4 Receptor Expressing Cells
In order to investigate EP4 receptor agonist activity of the compounds of the present invention, cAMP production was measured by using HEK293 in which the human EP4 receptor was stably expressed.
As a result of searching for prostaglandin E receptors using Refseq Database, the gene information of human EP4 (NM_000958) receptor was obtained. On the basis of the sequence information, the human EP4 receptor gene was cloned by PCR using human cDNA as a template in a conventional manner to establish HEK293 in which the human EP4 receptor was stably expressed. These cells were inoculated on a 96-well poly-D-lysine coated plate at a density of 2×10^4 cells/well, and cultured for 1 day. The medium in the wells was removed by aspiration, 80 μL of Dulbecco's modified Eagle's medium was added to each well, and the cells were incubated at 37° C. for 15 minutes. Then, 20 μL of an assay medium (Dulbecco's modified Eagle's medium containing 100 mM HEPES and 1 mM IBMX) containing PGE2 or a test compound (at 5-fold concentration of the final concentration) was added to start the reaction, and the reaction was allowed at 37° C. for 30 minutes. Then, the medium was removed by aspiration, and the reaction was terminated by adding 100 μL of Assay/Lysis Buffer included in cAMP Screen Kit (produced by Applied Biosystems). Then, the cells were incubated at 37° C. for 30 minutes, and used as a sample for cAMP quantification. By using this sample, amount of cAMP in the sample was quantified according to the method attached to cAMP Screen Kit.

rat bone marrow cells = experiment: Bone nodule formation action in rat bone marrow cells; assay type: cell-based
Protocol: Bone Nodule Formation Action in Rat Bone Marrow Cells
In order to investigate osteogenesis promoting action of the compounds of the present invention, the compounds were made to act on cultured rat bone marrow cells, and the number of formed bone nodule was counted.
As rat bone marrow cells, mesenchymal cells (KEM100) derived from rat bone marrow purchased from Dainippon Pharmaceutical were used. The cells stored in liquid nitrogen were thawed at 37° C., then suspended in a phosphate-buffered saline, and centrifuged at 900 rpm for 5 minutes. The supernatant was removed, and the cells were suspended again in a MEM culture medium (produced by GIBCO) containing 10% fetal bovine serum (produced by GIBCO). After the number of cells was counted, the cells were inoculated on a 12-well plate (produced by IWAKI) at a cell density of 1×10^4 cells/cm^2, and cultured at 37° C. in a 5% CO2 incubator. From the next day of the inoculation, the medium was exchanged with the α MEM culture medium containing 10% fetal bovine serum every 2 or 3 days, and the cells were proliferated to the confluent state. The addition of the compound was conducted from the next day after the cells reached confluent. […]

T1 sequence (P35408 whole entry): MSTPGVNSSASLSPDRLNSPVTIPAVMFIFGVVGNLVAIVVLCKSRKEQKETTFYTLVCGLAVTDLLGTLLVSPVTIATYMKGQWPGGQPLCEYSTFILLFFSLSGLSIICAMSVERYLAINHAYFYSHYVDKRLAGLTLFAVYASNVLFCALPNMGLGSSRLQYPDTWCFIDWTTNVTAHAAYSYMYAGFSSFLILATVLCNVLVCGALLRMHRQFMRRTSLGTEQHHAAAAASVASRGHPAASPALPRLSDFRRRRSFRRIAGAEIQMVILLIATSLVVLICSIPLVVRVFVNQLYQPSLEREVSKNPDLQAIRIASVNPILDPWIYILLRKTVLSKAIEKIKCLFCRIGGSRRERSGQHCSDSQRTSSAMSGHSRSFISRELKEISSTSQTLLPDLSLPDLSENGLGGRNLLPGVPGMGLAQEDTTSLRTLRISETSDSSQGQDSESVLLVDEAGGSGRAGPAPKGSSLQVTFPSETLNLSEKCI

SMILES | increase of cAMP (human EP4 receptor) | bone nodule formation promoting action (number of mineralized bone nodule formed) (rat bone marrow cells; concentration ranging from 1 nM to 10 μM, von Kossa staining 21 to 28 days after addition) | cytotoxicity (rat bone marrow cells; rat bone marrow cells, 1 nM to 10 μM)
O=C(O)c1ccc(CCN2C(=S)CCCN2CCC(O)Cc2cccc(C(F)(F)F)c2)cc1 (stereo not shown) [ITH-H001, 4-[2-(2-{3-hydroxy-4-[3-(trifluoromethyl)phenyl]butyl}-6-thioxotetrahydropyridazin-1-yl)ethyl]benzoic acid] | Increase of cAMP was observed | – | –
O=C(O)c1ccc(OCCN2C(=O)CCCN2CCC(O)Cc2cccc(C(F)(F)F)c2)cc1 (stereo not shown) [IEH-H001, 4-[2-(2-{3-hydroxy-4-[3-(trifluoromethyl)phenyl]butyl}-6-oxo-tetrahydropyridazin-1-yl)ethyloxy]benzoic acid] | Increase of cAMP was observed | – | –
O=C(O)c1ccc(CCN2C(=O)CCCN2CCC(O)Cc2cccc(Cl)c2)cc1 (stereo not shown) [IAH-H024, 4-[2-(2-{4-[3-chlorophenyl]-3-hydroxybutyl}-6-oxotetrahydropyridazin-1-yl)ethyl]benzoic acid] | Increase of cAMP was observed | – | –
O=C(O)c1ccc(CCN2C(=O)CCCN2CCC(O)Cc2cccc(C(F)(F)F)c2)cc1 (stereo not shown) [IAH-H001, 4-[2-(2-{3-hydroxy-4-[3-(trifluoromethyl)phenyl]butyl}-6-oxotetrahydropyridazin-1-yl)ethyl]benzoic acid] | Increase of cAMP was observed | exhibited an bone nodule formation promoting action in a dose-dependent manner | no cytotoxicity
O=C(O)Cc1ccc(CN2C(=O)CCCN2CCC(O)Cc2cccc(C(F)(F)F)c2)cc1 (stereo not shown) [IKH-H001, 2-{4-[(2-{3-hydroxy-4-[3-(trifluoromethyl)phenyl]butyl}-6-oxotetrahydropyridazin-1-yl)methyl]phenyl}acetic acid] | Increase of cAMP was observed | – | –
COc1cccc(CC(O)CCN2CCCC(=O)N2CCc2ccc(C(=O)O)cc2)c1 (stereo not shown) [IAH-H005, 4-(2-{2-[3-hydroxy-4-(3-methoxyphenyl)butyl]-6-oxotetrahydro-pyridazin-1-yl}ethyl)benzoic acid] | Increase of cAMP was observed | – | –
O=C(O)c1ccc(CCCN2C(=O)CCCN2CCC(O)Cc2cccc(C(F)(F)F)c2)cc1 (stereo not shown) [IGH-H001, 4-[3-(2-{3-hydroxy-4-[3-(trifluoromethyl)phenyl]butyl}-6-oxotetrahydropyridazin-1-yl)propyl]benzoic acid] | Increase of cAMP was observed | – | –
O=C(O)Cc1cccc(CN2C(=O)CCCN2CCC(O)Cc2cccc(C(F)(F)F)c2)c1 (stereo not shown) [ILH-H001, 2-{3-[(2-{3-hydroxy-4-[3-(trifluoromethyl)phenyl]butyl}-6-oxotetrahydropyridazin-1-yl)methyl]phenyl}acetic acid] | Increase of cAMP was observed | – | –
O=C(O)c1ccc(CCCN2C(=O)CCCN2CCC(O)Cc2cccc(C(F)(F)F)c2)o1 (stereo not shown) [IHH-H001, 5-[3-(2-{3-hydroxy-4-[3-(trifluoromethyl)phenyl]butyl}-6-oxotetrahydropyridazin-1-yl)propyl]furan-2-carboxylic acid] | Increase of cAMP was observed | – | –
O=C(O)c1ccc(CCN2C(=O)CCCN2CCC(O)c2ccc(F)cc2)cc1 (stereo not shown) [IAH-H003, 4-(2-{2-[3-hydroxy-3-(4-fluorophenyl)propyl]-6-oxotetrahydro-pyridazin-1-yl}ethyl)benzoic acid] | Increase of cAMP was observed | – | –
O=C(O)c1ccc(CCN2C(=O)CCCN2CCC(O)c2cccc(-c3ccc(F)cc3)c2)cc1 (stereo not shown) [IAH-H004, 4-[2-(2-{3-hydroxy-3-[3-(4-fluorophenyl)phenyl]propyl}-6-oxotetrahydropyridazin-1-yl)ethyl]benzoic acid] | Increase of cAMP was observed | – | –
O=C(O)c1ccc(CCN2C(=O)CCCN2CCC(O)c2ccccc2)cc1 (stereo not shown) [IAH-H002] | Increase of cAMP was observed | – | –
O=C(O)c1cccc(OCCN2C(=O)CCCN2CCC(O)Cc2cccc(C(F)(F)F)c2)c1 (stereo not shown) [IDH-H001, 3-[2-(2-{3-hydroxy-4-[3-(trifluoromethyl)phenyl]butyl}-6-oxotetrahydropyridazin-1-yl)ethyloxy]benzoic acid] | Increase of cAMP was observed | – | –
O=C(O)COc1cccc(CN2C(=O)CCCN2CCC(O)Cc2cccc(C(F)(F)F)c2)c1 (stereo not shown) [ICH-H001, 2-{3-[(2-{3-hydroxy-4-[3-(trifluoromethyl)phenyl]butyl}-6-oxotetrahydropyridazin-1-yl)methyl]phenyloxy}acetic acid] | Increase of cAMP was observed | – | –
O=C(O)CCc1cccc(CN2C(=O)CCCN2CCC(O)Cc2cccc(C(F)(F)F)c2)c1 (stereo not shown) [IPH-H001, 3-{3-[(2-{3-hydroxy-4-[3-(trifluoromethyl)phenyl]butyl}-6-oxotetrahydropyridazin-1-yl)methyl]phenyl}propionic acid] | Increase of cAMP was observed | – | –
O=C(O)c1cccc(CCCN2C(=O)CCCN2CCC(O)Cc2cccc(C(F)(F)F)c2)c1 (stereo not shown) [IFH-H001, 3-[3-(2-{3-hydroxy-4-[3-(trifluoromethyl)phenyl]butyl}-6-oxo-tetrahydropyridazin-1-yl)propyl]benzoic acid] | Increase of cAMP was observed | – | –
O=C(O)C=Cc1cccc(CN2C(=O)CCCN2CCC(O)Cc2cccc(C(F)(F)F)c2)c1 (stereo not shown) [IOH-H001, 3-{3-[(2-{3-hydroxy-4-[3-(trifluoromethyl)phenyl]butyl}-6-oxotetrahydropyridazin-1-yl)methyl]phenyl}acrylic acid] | Increase of cAMP was observed | – | –
